In the NIST ThermoML archive (doi:10.1016/j.fluid.2006.01.030):

Legend:
[1] = Liquid
[2] = xn = mol fraction of the nth substance listed; details: Liquid, x1 = 1

CCCCCCC [heptane]
viscosity [mPa·s], [1]
Details	293.15 K	313.15 K	333.15 K	353.15 K
100 kPa, Capillary tube (Ostwald / Ubbelohde) method	0.41	0.333	0.276	0.232
20000 kPa, Falling or rolling sphere viscometry	0.509	0.408	0.336	0.289
40000 kPa, Falling or rolling sphere viscometry	0.604	0.487	0.402	0.346
60000 kPa, Falling or rolling sphere viscometry	0.706	0.57	0.472	0.401
80000 kPa, Falling or rolling sphere viscometry	0.817	0.658	0.546	0.458
100000 kPa, Falling or rolling sphere viscometry	0.937	0.751	0.623	0.521

CCO [ethanol]
viscosity [mPa·s], [1]
Details	293.15 K	313.15 K	333.15 K	353.15 K
100 kPa, Capillary tube (Ostwald / Ubbelohde) method	1.194	0.826	0.59	–
20000 kPa, Falling or rolling sphere viscometry	1.344	0.948	0.683	0.51
40000 kPa, Falling or rolling sphere viscometry	1.494	1.059	0.769	0.574
60000 kPa, Falling or rolling sphere viscometry	1.647	1.171	0.851	0.636
80000 kPa, Falling or rolling sphere viscometry	1.797	1.282	0.934	0.699
100000 kPa, Falling or rolling sphere viscometry	1.955	1.392	1.015	0.763

CCO [ethanol] + CCCCCCC
viscosity [mPa·s], [2]
Details	293.15 K	313.15 K	333.15 K	353.15 K
100 kPa, Capillary tube (Ostwald / Ubbelohde) method	1.194	0.826	0.59	–
20000 kPa, Falling or rolling sphere viscometry	1.344	0.948	0.683	0.51
40000 kPa, Falling or rolling sphere viscometry	1.494	1.059	0.769	0.574
60000 kPa, Falling or rolling sphere viscometry	1.647	1.171	0.851	0.636
80000 kPa, Falling or rolling sphere viscometry	1.797	1.282	0.934	0.699
100000 kPa, Falling or rolling sphere viscometry	1.955	1.392	1.015	0.763
